Here are results for twelve compounds from ChEMBL document CHEMBL1126704, “Dibenzoxepin derivatives: thromboxane A2 synthase inhibition and thromboxane A2 receptor antagonism combined in one molecule” (J Med Chem, 1993).

Structures are written as SMILES.

Test [1] in a line: Tested for specific binding of radioligand [3H]U-46619 to thromboxane A2/prostaglandin H2 receptor in guinea pig washed platelets. Also on record: species or system Cavia porcellus.
The nature of test [2]: Tested for specific binding of radioligand [3H]U-46619 to thromboxane A2 /prostaglandin H2 receptor in guinea pig washed platelets. Also on record: species or system Cavia porcellus.
The species named for a further test is Homo sapiens. In words: In vitro inhibition of U-46619 (3 uM) -induced human platelet aggregation. Format: functional.
Test [3] has as its system Rattus norvegicus. Nature of the test: Tested for the effect at 30 mg/kg through peroral route on rat blood urea nitrogen, 24 hr after reperfusion; (p<0.01). The format is functional. The settings on record: route oral.
The subject of test [4] is Rattus norvegicus. In words: Tested for the effect at 30 mg/kg through peroral route on rat blood urea nitrogen, 48 hr after reperfusion; (p<0.05). The note with it: route oral. The format is functional.
For test [5], the system named is Rattus norvegicus. Nature of the test: Tested for the effect at 30 mg/kg through peroral route on rat serum creatinine, 24 hr after reperfusion; (p<0.05). Format: functional, organism-based. Details: dose 30 mg/kg.
The subject of test [6] is Rattus norvegicus. In words: Tested for the effect at 30 mg/kg through peroral route on rat serum creatinine, 48 hr after reperfusion. The format is functional, organism-based. Details: dose 30 mg/kg.
The species entered for test [7] is Cavia porcellus. In words: Tested for inhibition against thromboxane A2/prostaglandin H2 receptor in guinea pig washed platelets using radioligand [3H]U-46619 at 100 uM.
The subject of test [8] is Thromboxane-A synthase (Bos taurus). Nature of the test: Tested against TXA2 synthase in bovine platelet microsome at 10 uM.
For test [9], the species on record is Cavia porcellus. Nature of the test: Tested for inhibition against thromboxane A2/prostaglandin H2 receptor in guinea pig washed platelets using radioligand [3H]U-46619 at 1 uM.

Regarding `O=C(O)c1ccc2c(c1)/C(=C/Cn1ccnc1)c1ccccc1CO2`, in test [1], the Ki (commonly a measure of affinity in units of concentration, obtained from inhibition or displacement) amounted to 600 nM.

In turn, `O=C(O)c1ccc2c(c1)/C(=C\Cn1ccnc1)c1ccccc1CO2` gave a Ki in test [1] of 4500 nM.

`O=C(O)c1ccc2c(c1)/C(=N\Cc1cccnc1)c1ccccc1CO2`: in test [2], the affinity, expressed as Ki, was 120 nM.

Compound `O=C(O)c1ccc2c(c1)/C(=C\Cc1cccnc1)c1ccccc1CO2` showed a Ki in test [1] of 180 nM. The IC50 (usually the concentration at which inhibition is half-maximal) in the test filed under Homo sapiens worked out at 9.6 µM. Besides, the Blood urea nitrogen in the test with Rattus norvegicus [3] is recorded as 34.18; in the test with Rattus norvegicus [4], 30.37. The Serum creatinine in the test on Rattus norvegicus [5] was determined as 1.48; in the test with Rattus norvegicus [6], 1.16.

Turning to `C/C(=C\c1ccc(Cc2cccnc2)cc1)C(=O)O`, the inhibition (commonly the relative decrease from the control value, in per cent) in the test listed under Cavia porcellus [7] turned out to be 14%.

`O=C(O)c1ccc2c(c1)C(SCc1ccccc1)c1ccccc1CO2` (racemic) had a Ki in test [1] of 40 nM. For the same compound, in [8], the inhibition was determined as 19%.

In test [1], `O=C(O)c1ccc2c(c1)C(SCc1cccnc1)c1ccccc1CO2` (racemic) displayed a Ki of 250 nM.

Consider `O=C(O)c1ccc2c(c1)C(NCc1ccccc1)c1ccccc1CO2` (racemic), for which the inhibition in the test filed under Cavia porcellus [9] was 6%; in [8], -4%.

In the case of `O=C(O)c1ccc2c(c1)C(NCc1cccnc1)c1ccccc1CO2` (racemic), the inhibition in the test listed under Cavia porcellus [9] came to 12%.

Compound `O=C(O)c1ccc2c(c1)C(SCc1cccnc1)c1ccccc1CO2` (single isomer, unassigned; (+)) yielded a Ki in test [1] of 8200 nM.

As for `O=C(O)c1ccc2c(c1)C(SCc1cccnc1)c1ccccc1CO2` (stereo in doubt; (-)-3), the Ki in test [1] worked out at 85 nM.

In [2], `O=C(O)CCCC/C=C(\c1ccccc1)c1cccnc1` [(E)-ISBOGREL] came in with a Ki of 2700 nM. The IC50 in the test filed under Homo sapiens stood at 280 µM. Further, the Blood urea nitrogen in the test with Rattus norvegicus [3] was 58.07; with Rattus norvegicus [4] it was 48.38. For the same compound, the Serum creatinine in the test on Rattus norvegicus [5] was determined as 2.07; in the test on Rattus norvegicus [6], 2.02.
